Measurements as given in US20240384268A1, “Oligonucleotides” (Hudson Institute of Medical Research, priority 2021, published 2024).
In the oligonucleotide strings, read from the 5' end, every base follows the letter of its sugar. An asterisk marks phosphorothioate; unmarked linkages are phosphodiester. Other units and linkages are bracketed, terminal groups are in braces. A string of capitals states the bases alone. d = 2'-deoxy (DNA); m = 2'-O-methyl

Molecular target: T1, human TLR9 (Homo sapiens, UniProt Q9NR96)
T1 construct: HA; host or cells: 293XL-hTLR9-HA (HEK293)
T1 sequence (Q9NR96 26-1032): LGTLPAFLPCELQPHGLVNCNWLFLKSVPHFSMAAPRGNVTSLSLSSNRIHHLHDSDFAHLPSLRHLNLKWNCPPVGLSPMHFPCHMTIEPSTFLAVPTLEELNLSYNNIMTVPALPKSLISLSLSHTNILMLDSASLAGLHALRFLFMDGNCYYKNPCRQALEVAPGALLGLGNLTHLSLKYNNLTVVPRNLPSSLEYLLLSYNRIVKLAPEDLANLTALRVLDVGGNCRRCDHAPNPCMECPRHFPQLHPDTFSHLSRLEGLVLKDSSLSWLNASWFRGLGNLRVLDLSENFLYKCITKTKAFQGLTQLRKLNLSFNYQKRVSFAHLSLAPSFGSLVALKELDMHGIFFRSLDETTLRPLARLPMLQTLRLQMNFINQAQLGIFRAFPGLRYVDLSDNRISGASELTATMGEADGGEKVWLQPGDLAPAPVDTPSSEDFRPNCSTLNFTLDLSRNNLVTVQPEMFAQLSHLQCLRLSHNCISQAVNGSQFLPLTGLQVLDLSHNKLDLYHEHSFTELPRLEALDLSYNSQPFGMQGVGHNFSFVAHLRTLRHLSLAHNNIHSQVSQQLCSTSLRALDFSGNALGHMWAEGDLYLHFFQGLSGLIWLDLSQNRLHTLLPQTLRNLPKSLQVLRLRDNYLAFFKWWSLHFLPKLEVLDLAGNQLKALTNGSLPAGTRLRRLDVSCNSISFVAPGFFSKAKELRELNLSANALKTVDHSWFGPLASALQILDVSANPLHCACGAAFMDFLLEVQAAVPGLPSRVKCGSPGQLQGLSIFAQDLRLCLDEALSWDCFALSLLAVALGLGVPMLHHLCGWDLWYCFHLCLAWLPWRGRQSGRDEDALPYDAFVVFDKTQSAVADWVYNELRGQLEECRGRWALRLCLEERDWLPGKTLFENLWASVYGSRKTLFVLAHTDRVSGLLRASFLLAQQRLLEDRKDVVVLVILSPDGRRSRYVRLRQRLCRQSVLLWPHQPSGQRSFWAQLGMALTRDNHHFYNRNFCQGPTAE
Assay: HEK-TLR9 NF-κB-luciferase reporter, ODN2006 stimulation
Type: cell-based
Details: for TLR9 100 nM (averaged NF-κB-Luciferase level relative to ODN2006 condition): ASO 100 nM; for TLR9 100 nM (averaged NF-κB-Luciferase level relative to ODN2006 condition) / TLR9 500 nM (averaged NF-κB-Luciferase level relative to ODN2006 condition): relative to ODN2006 only, given as fraction; for TLR9 500 nM (averaged NF-κB-Luciferase level relative to ODN2006 condition): ASO 500 nM; for TLR9-500 nM: averaged NF-κB-Luciferase relative to ODN2006 / inhibition of TLR9 sensing of ODN2006 (in words): HEK-TLR9; for TLR9-500 nM: averaged NF-κB-Luciferase relative to ODN2006: 500 nM ASO 45 min, then 200 nM ODN2006 overnight, percentage of ODN2006 only; for inhibition of TLR9 sensing of ODN2006 (in words): 500 nM 2′OMe or PS oligos, 200 nM ODN2006

Substance | TLR9 100 nM (averaged NF-κB-Luciferase level relative to ODN2006 condition) | TLR9 500 nM (averaged NF-κB-Luciferase level relative to ODN2006 condition) | TLR9-500 nM: averaged NF-κB-Luciferase relative to ODN2006 [%] | inhibition of TLR9 sensing of ODN2006 (in words) | inhibition of TLR9 sensing of ODN2006 (in words) (listed as ASO2139)
GTCTCTGGAGCTTCCT (antisense; LNA-modified, pattern not given here) [CAMSAP1-2456 LNA V1] | 0.935 | 0.272 | – | – | –
GTCTTCATCGGCCCTG (antisense; LNA-modified, pattern not given here) [CAMSAP1-2113 LNA V1] | 0.797 | 0.617 | – | – | –
GTGATCTTGACATGCT (antisense; LNA-modified, pattern not given here) [EGFR-2790 LNA KL] | 1.001 | 0.181 | – | – | –
GTGATGGCCTCCCATC (antisense; LNA-modified, pattern not given here) [HPRT LNA-333 V1] | 0.890 | 0.694 | – | – | –
TACTTTCCGAGGTGTC (antisense; LNA-modified, pattern not given here) [CAMSAP1-1739 LNA KL] | 0.915 | 0.356 | – | – | –
TCCACAATCAAGACAT (antisense; LNA-modified, pattern not given here) [HPRT LNA-551 KL] | 0.851 | 0.308 | – | – | –
TCCATACCCAAGGCAT (antisense; LNA-modified, pattern not given here) [CTNN2B-2446 LNA V1] | 1.075 | 0.951 | – | – | –
TCCGCCCAAAGGGAAC (antisense; LNA-modified, pattern not given here) [HPRT LNA-1027 KL] | 0.876 | 0.599 | – | – | –
TCCTTGCACGTGGCTT (antisense; LNA-modified, pattern not given here) [EGFR-1014 LNA V1] | 1.152 | 1.027 | – | – | –
TCGTGGGGTCCTTTTC (antisense; LNA-modified, pattern not given here) [HPRT LNA-660 V1] | 0.461 | 0.462 | – | – | –
TCTTCATCGGCCCTGC (antisense; LNA-modified, pattern not given here) [CAMSAP1-2112 LNA V1] | 0.921 | 0.445 | – | – | –
TCTTGGCTTCGTGGAG (antisense; LNA-modified, pattern not given here) [MB21D1-521 LNA V1] | 1.251 | 0.595 | – | – | –
TGACAAAGATTCACTG (antisense; LNA-modified, pattern not given here) [HPRT LNA-1353 KL] | 0.819 | 0.574 | – | – | –
TGACTGTCTTGAGGGT (antisense; LNA-modified, pattern not given here) [MB21D1-1483 LNA KL] | 1.245 | 0.290 | – | – | –
TGCTCCTCGGTCTCCC (antisense; LNA-modified, pattern not given here) [CAMSAP1-1850 LNA V1] | 0.548 | 0.535 | – | – | –
TGGTCCACAACCCCTT (antisense; LNA-modified, pattern not given here) [MB21D1-697 LNA V1] | 1.018 | 0.587 | – | – | –
TGGTGGCCACCCATCT (antisense; LNA-modified, pattern not given here) [CTNN2B-2479 LNA V1] | 1.136 | 1.117 | – | – | –
TGTCCTTGCACGTGGC (antisense; LNA-modified, pattern not given here) [EGFR-1016 LNA V1] | 1.020 | 0.853 | – | – | –
TGTCTGGAAGCTTCCT (antisense; LNA-modified, pattern not given here) [CTNN2B-808 LNA V1] | 1.320 | 0.648 | – | – | –
TTCAGGCGCTGCCTTG (antisense; LNA-modified, pattern not given here) [CAMSAP1-2709 LNA V1] | 1.202 | 0.494 | – | – | –
mA*mA*mA*mG*mC*A*G*T*C*T*C*C*A*T*G*mU*mC*mC*mC*mA (mA*mA*mA*mG*mC*dA*dG*dT*dC*dT*dC*dC*dA*dT*dG*mU*mC*mC*mC*mA; antisense) [[CDKN2B-AS1]2237] | – | – | 87.17 | – | –
mA*mA*mG*mC*mA*G*T*C*T*C*C*A*T*G*T*mC*mC*mC*mA*mG (mA*mA*mG*mC*mA*dG*dT*dC*dT*dC*dC*dA*dT*dG*dT*mC*mC*mC*mA*mG; antisense) [[CDKN2B-AS1]2236] | – | – | 69.71 | – | –
mA*mG*mC*mA*mG*T*C*T*C*C*A*T*G*T*C*mC*mC*mA*mG*mG (AGCAGTCTCCATGTCCCAGG; antisense; sugars from the 5' end m5 d10 m5, all phosphorothioate, methylation of C not given here) [[CDKN2B-AS1]2235] | – | – | 73.18 | – | –
mA*mG*mU*mC*mU*C*C*A*T*G*T*C*C*C*A*mG*mG*mC*mC*mU (mA*mG*mU*mC*mU*dC*dC*dA*dT*dG*dT*dC*dC*dC*dA*mG*mG*mC*mC*mU; antisense) [[CDKN2B-AS1]2232] | – | – | 122.20 | – | –
mA*mG*mU*mG*mG*C*A*C*A*T*A*C*C*A*C*mA*mC*mC*mC*mU (AGUGGCACATACCACACCCU; antisense; sugars from the 5' end m5 d10 m5, all phosphorothioate, methylation of C not given here) [[CDKN2B-AS1]495] | – | – | 86.07 | – | –
mA*mU*mU*mU*mC*C*A*C*A*T*G*C*C*C*A*mG*mU*mG*mU*mU (AUUUCCACATGCCCAGUGUU; antisense; sugars from the 5' end m5 d10 m5, all phosphorothioate, methylation of C not given here) [[CDKN2B-AS1]626] | – | – | 63.65 | – | –
mC*mA*mG*mU*mC*T*C*C*A*T*G*T*C*C*C*mA*mG*mG*mC*mC (mC*mA*mG*mU*mC*dT*dC*dC*dA*dT*dG*dT*dC*dC*dC*mA*mG*mG*mC*mC; antisense) [[CDKN2B-AS1]2233] | – | – | 55.13 | – | –
mC*mA*mG*mU*mG*T*T*T*T*T*A*A*T*T*T*mU*mG*mU*mA*mG (mC*mA*mG*mU*mG*dT*dT*dT*dT*dT*dA*dA*dT*dT*dT*mU*mG*mU*mA*mG; antisense) [[CDKN2B-AS1]613] | – | – | 92.59 | – | –
mC*mU*mU*mG*mU*G*A*A*A*A*G*A*T*T*A*mU*mC*mU*mU*mC (mC*mU*mU*mG*mU*dG*dA*dA*dA*dA*dG*dA*dT*dT*dA*mU*mC*mU*mU*mC) [[CDKN2B-AS1]2139] | – | – | 34.91 | strongly inhibited TLR9 | significantly increased TLR9 inhibition
